The conditions of data set [1]: rcm bond, DCE.
Another data set concerns NL-RLuc virus. As to the kind of experiment: Inhibition of HIV replication (NL-RLuc luciferase reporter virus in MT-2 cells). In kind it is cell-based, human immunodeficiency virus (HIV). As to conditions: recombinant NL-Rluc virus infecting MT-2 cells, 5 days of incubation, luciferase readout; at least 2 experiments; serum condition not given (10% FBS, 15 mg/ml human serum albumin/10% FBS or 40% human serum/5% FBS). (In a reporter assay the amount or activity of a reporter protein is the signal.)

Like-named read-outs stand apart in the source and are kept apart here.

Among the data in patent US9540393B2, “Inhibitors of human immunodeficiency virus replication” (priority 2013, dated 2017) are ring closure, yield of all isomers and EC50 values, retold here.

Consider `CCOC(=O)[C@@H](OC(C)(C)C)c1c(C)nc2cc3nn2c1N1CCC(C)(CC1)OCCCCOc1ccccc1CC(=O)CNC3=O`, for which the ring closure, yield of all isomers in data set [1] (from C=CCOc1ccccc1CC(O)CNC(=O)c1cc2nc(C)c([C@H](OC(C)(C)C)C(=O)OCC)c(N3CCC(C)(OCC=C)CC3)n2n1, Hoveyda-Grubbs 2nd generation, 7.4 mM, 70.0 °C, 2.0 h, 3 steps) came to 43.1%.

Turning to `Cc1nc2cc3nn2c(c1[C@H](OC(C)(C)C)C(=O)O)-c1ccc2c(c1Cl)N(C/C=C/COc1cc(F)ccc1CNC3=O)CCO2` (single isomer, unassigned) [Example 4], the EC50 with NL-RLuc virus stood at 1460 nM.

For `Cc1nc2cc3nn2c(c1[C@H](OC(C)(C)C)C(=O)O)-c1ccc2c(c1Cl)N(C/C=C/COc1cc(F)ccc1CNC3=O)CCO2` (single isomer, unassigned) [Example 2], in the data set on NL-RLuc virus, the EC50 was 31 nM.

As to `Cc1nc2cc3nn2c(c1[C@H](OC(C)(C)C)C(=O)O)-c1ccccc1C=CCOc1cc(F)ccc1CNC3=O`, the ring closure, yield of all isomers in data set [1] (from C=CCOc1cc(F)ccc1CNC(=O)c1cc2nc(C)c([C@H](OC(C)(C)C)C(=O)OCC)c(-c3ccccc3C=C)n2n1, Hoveyda-Grubbs II, 37.0 mM, 83.0 °C, 16.0 h, 2 steps) came to 5%.

In the case of `Cc1nc2cc3nn2c(c1[C@H](OC(C)(C)C)C(=O)O)-c1ccc2c(c1Cl)N(CC/C=C\Oc1cc(F)ccc1CNC3=O)CCO2` (single isomer, unassigned) [Example 5], in the data set on NL-RLuc virus, the EC50 amounted to 12100 nM.

Consider `Cc1nc2cc3nn2c(c1[C@H](OC(C)(C)C)C(=O)O)N1CCC(C)(CC1)OCCCCOc1ccccc1CC(O)CNC3=O` (single isomer, unassigned) [Example 22], for which the EC50 in the data set on NL-RLuc virus stood at 57 nM.

For the compound `Cc1nc2cc3nn2c(c1[C@H](OC(C)(C)C)C(=O)O)N1CCC(C)(CC1)OCCCCOc1ccccc1CC(O)CNC3=O` (some centres unmarked), the ring closure, yield of all isomers in data set [1] (from C=CCOc1ccccc1CC(O)CNC(=O)c1cc2nc(C)c([C@H](OC(C)(C)C)C(=O)OCC)c(N3CCC(C)(OCC=C)CC3)n2n1, Hoveyda-Grubbs 2nd generation, 6.0 mM, 70.0 °C, 2.0 h, 3 steps) was 51.1%.

With `Cc1nc2cc3nn2c(c1[C@H](OC(C)(C)C)C(=O)O)-c1ccc2c(c1Cl)N(CC=CCOc1cc(F)ccc1CNC3=O)CCO2`, the ring closure, yield of all isomers in data set [1] (from C=CCOc1cc(F)ccc1CNC(=O)c1cc2nc(C)c([C@H](OC(C)(C)C)C(=O)OCC)c(-c3ccc4c(c3Cl)N(CC=C)CCO4)n2n1, Hoveyda-Grubbs II, 57.0 mM, 83.0 °C, 3.0 h, 2 steps) was found to be 30.5%.

Regarding `Cc1nc2cc3nn2c(c1[C@H](OC(C)(C)C)C(=O)O)N1CCC(C)(CC1)OCCCCOc1ccccc1CC(O)CNC3=O` (single isomer, unassigned) [Example 21], in the data set with NL-RLuc virus, the EC50 is 136 nM.

On to `Cc1nc2cc3nn2c(c1[C@H](OC(C)(C)C)C(=O)O)-c1ccc2c(c1Cl)N(CC=CCCc1ccccc1CNC3=O)CCO2`, for which the ring closure, yield of all isomers in data set [1] (from C=CCCc1ccccc1CNC(=O)c1cc2nc(C)c([C@H](OC(C)(C)C)C(=O)OCC)c(-c3ccc4c(c3Cl)N(CC=C)CCO4)n2n1, Hoveyda-Grubbs II, 32.0 mM, 83.0 °C, 3.0 h, 2 steps) was 14.8%.

As to `Cc1nc2cc3nn2c(c1[C@H](OC(C)(C)C)C(=O)O)-c1ccc2c(c1Cl)N(CC/C=C\Oc1cc(F)ccc1CNC3=O)CCO2` (single isomer, unassigned) [Example 3], the EC50 in the data set on NL-RLuc virus was 42 nM.

A word on the EC50: it is the concentration needed to bring the measured effect to its halfway point.
